Experimental data from patent US20100112600A1, “Methods and compositions for modulating synapse formation” (priority 2006, published 2010).
Values belong to the molecule of their own block, whether it stands above or below them.

Experiments:
endogenous MEF2A = test: Immunoblot of sumoylation and acetylation of endogenous MEF2A in depolarized granule neurons; type: cell-based, rat
Method: In FIG. 3F, granule neurons in non-depolarizing concentrations of KCl (5 mM) were lysed in the presence or absence of the isopeptidase inhibitor N-ethylmaleimide (NEM) and immunoblotted for MEF2A. […] In FIG. 3G, granule neurons are exposed to media containing non-depolarizing (5 mM) or depolarizing (25 mM) concentrations of KCl in the presence of nimodipine (Nim) or its control vehicle (DMSO) were lysed in the presence of NEM and immunoblotted as in FIG. 3F. […] Cultures of primary granule neurons were isolated from P6 Long-Evans rats using known methods. Granule neurons were maintained in full medium (BME+10% calf serum (Hyclone), 1 mM each penicillin, streptomycin and L-glutamine and 25 mM KCl).

Nur77 promoter = test: Nur77-luciferase reporter gene assay in granule neurons; type: cell-based, rat; details: depolarized granule neurons
Method: FIG. 5C is a bar graph. […] Treatment with CsA prevented depolarization-induced expression of the WT Nur77-luciferase reporter gene (p<0.0001, ANOVA; n=6), but had no effect on MREmut Nur77-luciferase reporter gene.
(§1) Luciferase assays were performed as described (Shalizi et al., 2006, Science 311: 1012-1017) with minor modifications. Granule neurons were transfected with the reporter constructs pNur77-luc or pNur77mut-luc and pRL-TK and the indicated hpRNA expression plasmids, and an expression construct for Bcl-XL. Granule neurons were switched from full medium to fresh BME supplemented with 5% calf serum (Hyclone) 72 hours after transfection and incubated overnight. 293T cells maintained as described were cotransfected with p5G4luc or pMEF2×3luc and pRL-TK reporter constructs and the indicated expression plasmids by DNA-calcium phosphate precipitation. Fresh growth media was added within 24 hours of transfection. Cells were lysed 48 hours after transfection. In both neurons and 293T cells, firefly-and renilla-luciferase activities were determined using a dual-luciferase assay kit (Promega) according to the manufacturers instructions.
Primary rat cerebellar granule neurons were transfected with the U6/piasx1, U6/piasx2, or control U6 RNAi plasmid together with a luciferase reporter gene controlled by the Nur77 promoter containing two MEF2 response elements (MREs). […]

MEF2A Ser408 = test: Immunoblot of phospho-Ser408 MEF2A in depolarized granule neurons; type: cell-based, rat; details: granule neurons depolarized with 25 mM KCl; Nim 20 μM, CsA 4 μM
Method: Lysates of granule neurons were depolarized with 25 mM KCl were immunoblotted for MEF2A, phospho-Ser408 MEF2A or ERK1/2. Nim=Nimodipine, 20 μM.
Cultures of primary granule neurons were isolated from P6 Long-Evans rats using known methods. Granule neurons were maintained in full medium (BME+10% calf serum (Hyclone), 1 mM each penicillin, streptomycin and L-glutamine and 25 mM KCl). Granule neurons were transfected in DMEM by DNA-calcium phosphate precipitation using standard methods.

[1] = tested on: MEF2-response elements (MRE-luciferase); test: MRE-luciferase reporter gene assay in cells; type: cell-based; details: co-transfected expression plasmid
Method: FIG. 4B is a bar graph and a series of immunoblots. Cells coexpressing MEF2A and increasing amounts of MEF2A-SUMO together with a 3-MRE luciferase reporter gene (pMEF2×3-luc) and pRL-TK. […] Lysates were also immunoblotted for MEF2 or ERK1/2.
as §1
Sumoylation of MEF2A represses MEF2-dependent transcription. The effect of PIASx expression on MEF2-dependent transcription in cells was examined. […]

[2] = tested on: granule neuron dendritic claws; test: Dendritic claw number of granule neurons in organotypic cerebellar slices; type: cell-based, rat
Method: The role that MEF2A plays in synaptic dendritic development in the cerebellar cortex was determined. […] To visualize granule neurons undergoing postsynaptic differentiation, organotypic cerebellar slices prepared from postnatal day 9 (P9) rat pups were transfected with an expression plasmid encoding green fluorescent protein (GFP). Transfected granule neurons in the internal granular layer (IGL) had the typical small cell body with associated parallel axonal fibers and few dendrites (FIGS. 1A and 1B). Many dendrites harbored structures with the appearance of dendritic claws that were identified based on classic descriptions as: (i) located at the end of a dendrite, (ii) having cup- or sickle-like appearance, and (iii) displaying undulating or serrated inner surfaces (FIGS. 1C and 1D). […] The effect of MEF2A knockdown on granule neuron dendritic morphogenesis was next determined. Cerebellar slices were transfected with the U6/mef2a plasmid that encodes MEF2A hairpin RNAs (MEF2AhpRNA) or the control U6 plasmid together with a GFP expression plasmid.
Slices were prepared and processed using known methods. […]
Microscopy was carried out using standard methods. […] Images of transfected granule neurons were analyzed using SPOT software for dendritic length, number of primary dendrites, and number of branches per primary dendrite as described.

MREmut Nur77-luciferase reporter gene (Nur77 promoter; Nur77 promoter with mutant MRE): no effect
depolarization-induced expression of the WT Nur77-luciferase reporter gene (Nur77 promoter; Nur77 promoter with wild type MRE): prevented
Molecule: cyclosporin A
acetylation of endogenous MEF2A (endogenous MEF2A; depolarized neurons): decreased
sumoylation of endogenous MEF2A (endogenous MEF2A; depolarized neurons (25 mM KCl)): increased
depolarization-induced dephosphorylation of MEF2A at Ser408 (MEF2A Ser408): blocked

B1: PIASx: MEF2A SUMO E3 ligase; PIASxα and PIASxβ isoforms collectively (protein, UniProt O75928 1-621, looked up)
E3 SUMO-protein ligase PIAS2: MADFEELRNMVSSFRVSELQVLLGFAGRNKSGRKHDLLMRALHLLKSGCSPAVQIKIRELYRRRYPRTLEGLSDLSTIKSSVFSLDGGSSPVEPDLAVAGIHSLPSTSVTPHSPSSPVGSVLLQDTKPTFEMQQPSPPIPPVHPDVQLKNLPFYDVLDVLIKPTSLVQSSIQRFQEKFFIFALTPQQVREICISRDFLPGGRRDYTVQVQLRLCLAETSCPQEDNYPNSLCIKVNGKLFPLPGYAPPPKNGIEQKRPGRPLNITSLVRLSSAVPNQISISWASEIGKNYSMSVYLVRQLTSAMLLQRLKMKGIRNPDHSRALIKEKLTADPDSEIATTSLRVSLMCPLGKMRLTIPCRAVTCTHLQCFDAALYLQMNEKKPTWICPVCDKKAAYESLILDGLFMEILNDCSDVDEIKFQEDGSWCPMRPKKEAMKVSSQPCTKIESSSVLSKPCSVTVASEASKKKVDVIDLTIESSSDEEEDPPAKRKCIFMSETQSSPTKGVLMYQPSSVRVPSVTSVDPAAIPPSLTDYSVPFHHTPISSMSSDLPGLDFLSLIPVDPQYCPPMFLDSLTSPLTASSTSVTTTSSHESSTHVSSSSSRSETGVITSSGSNIPDIISLD
MRE-dependent transcription (luciferase reporter) [1]: potently inhibited
dendritic claw number on expression of the construct ([2]; cerebellar slices transfected with expression plasmid vs control vector): robustly increased

B2: PIASx-Res: wild type PIASx protein expressed from cDNA resistant to piasx2 hpRNAs (protein, UniProt O75928 1-621, looked up)
E3 SUMO-protein ligase PIAS2: B1 E3 SUMO-protein ligase PIAS2
modifications: expressed from hpRNA-resistant cDNA
notes: wild type PIASx protein expressed from cDNA resistant to piasx2 hpRNAs
number of claws restored, relative to control U6 transfected cerebellar slices ([2]; expression in the background of piasx2 RNAi): ~80%
